Data published in ChEMBL document CHEMBL5352494, “Hybrid molecules combining GABA-A and serotonin 5-HT6 receptors activity designed to tackle neuroinflammation associated with depression” (Eur J Med Chem, 2023).

Legend:
[1] = in vitro; settings: rat, liver microsomes
[2] = in vitro; settings: human, Caco-2

Compound	half-life at 0.1 µM [1] [min]	Papp A→B at 10 µM [2] [×10⁻⁶ cm/s]
CC(C)NCC(O)COc1cccc2ccccc12 (configuration not stated) [PROPRANOLOL]	> 60	–
CNC(=C[N+](=O)[O-])NCCSCc1ccc(CN(C)C)o1 [RANITIDINE]	–	0.3
